# Patent US12704520B2, “Melanogenesis detection method using FAM86A” (Research & Business Foundation Sungkyunkwan University, priority 2019, dated 2026)
# What was measured:
# Format in all cases: cell-based, mouse
# B16F10 cells [1] = assay: Fontana-Masson staining after FAM86A knockdown; details: α-MSH 100 nM, 48 hours, microscope
# Description: The B16F10 cells cultured in Example 1 were seeded in 6-well plates at a density of 5×10^4 cells per well, grown for 24 hours, and FAM86A shRNA represented by SEQ ID NO: 17 was used for knockdown of the FAM86A gene. The cells were treated with α-MSH at 100 nM. The resulting cells were cultured in an incubator under conditions of 37° C. and 5% CO2 for 48 hours, washed twice with PBS, and 1 mL of a 1% ammoniacal silver nitrate solution was added to each well, followed by heating a plate in a 60° C. dryer for 1 hour. Subsequently, the plate was washed three times with running water, and treated with 1 mL of a 0.2% gold chloride solution per well for 30 seconds. Afterward, the plate was washed twice with running water, treated with 1 mL of a 5% sodium thiosulfate solution per well, washed twice with running water, treated with 1 mL of a 0.5% neutral red solution per well for 2 minutes, and then washed with running water. The reaction result was confirmed under a microscope.
# B16F10 cells [2] = assay: Melanin secretion assay after FAM86A knockdown; details: FAM86A knockdown without α-MSH, 48 hours, absorbance 475 nm
# Description: The B16F10 cells cultured in Example 1 were seeded in a 6-well plate at 5×10^4 cells/well and cultured for 24 hours, and the knockdown of the FAM86A gene was induced using FAM86A shRNA represented by SEQ ID NO: 17. The cells were cultured in an incubator under conditions of 37° C. and 5% CO2 for 48 hours, the medium was removed, and then a cell lysis buffer was added at 200 μL per well to lyse the cells, followed by centrifugation at 4° C. and 12,000 rpm for 5 minutes and removal of a supernatant. 100 μL of the resulting supernatant was dispensed into a 96-well plate, and subjected to absorbance measurement at 475 nm. Here, an amount of melanin secretion was calculated based on 100% of the amount of melanin in cells in which the FAM86A gene was not knocked down.
# [3] = test system: tyrosinase, TYRP-1, TYRP-2 and MITF genes; assay: Real-time PCR of melanogenesis-associated genes after FAM86A knockdown; details: B16F10 cells, 48 hours
# Description: The B16F10 cells cultured in Example 1 were seeded in 6-well plates at a density of 5×10^4 cells per well, grown for 24 hours, and FAM86A shRNA represented by SEQ ID NO: 17 was used for knockdown of the FAM86A gene. The cells were incubated in an incubator under conditions of 37° C. and 5% CO2 for 48 hours. After 48 hours, the medium was completely removed, the cells were decomposed with TRIzol and neutralized using BCP. The neutralized liquid was treated with isopropanol to precipitate mRNA. Subsequently, only the precipitated mRNA was collected using a centrifuge, and used for the experiment. Intracellular mRNA was synthesized into cDNA using a cDNA kit, and the expression levels of tyrosinase, TYRP-1, TYRP-2 and MITF genes, which are important for melanogenesis, were determined by PCR.
substance,measurement,setting,value
"SEQ ID NO: 17: FAM86 shRNA (Mus musculus, NM_027446.2), pLKO.1 vector, target sequence SEQ ID NO: 27; used in the examples (DNA CCGGGTCTATGTAGCCTATACTATCCTCGAGGATAGTATAGGCTACATAGACTTTTTG)",presence of melanin (Fontana-Masson staining),B16F10 cells [1],more present
same,amount of melanin secretion,B16F10 cells [2],increased
same,expression level of MITF gene,[3],significantly increased
same,expression level of TYRP-1 gene,[3],significantly increased
same,expression level of TYRP-2 gene,[3],significantly increased
same,expression level of tyrosinase gene,[3],significantly increased
